Laboratory results reported in ChEMBL document CHEMBL1201862, “PubChem BioAssay data set” (2004).
Where “and” joins values, the source holds several entries; their conditions need not be identical. Equal entries are not always repeated. Calls of active or inactive are those of the source.

Key:
[1] = biological target: T1, Replicative DNA helicase DnaB (Mycobacterium tuberculosis, UniProt P9WMR3); experiment: DnaB intein splicing inhibitors, dose response, biochemical, cell-free fluorescence (AID 449749); type: functional
T1 sequence (P9WMR3 whole entry): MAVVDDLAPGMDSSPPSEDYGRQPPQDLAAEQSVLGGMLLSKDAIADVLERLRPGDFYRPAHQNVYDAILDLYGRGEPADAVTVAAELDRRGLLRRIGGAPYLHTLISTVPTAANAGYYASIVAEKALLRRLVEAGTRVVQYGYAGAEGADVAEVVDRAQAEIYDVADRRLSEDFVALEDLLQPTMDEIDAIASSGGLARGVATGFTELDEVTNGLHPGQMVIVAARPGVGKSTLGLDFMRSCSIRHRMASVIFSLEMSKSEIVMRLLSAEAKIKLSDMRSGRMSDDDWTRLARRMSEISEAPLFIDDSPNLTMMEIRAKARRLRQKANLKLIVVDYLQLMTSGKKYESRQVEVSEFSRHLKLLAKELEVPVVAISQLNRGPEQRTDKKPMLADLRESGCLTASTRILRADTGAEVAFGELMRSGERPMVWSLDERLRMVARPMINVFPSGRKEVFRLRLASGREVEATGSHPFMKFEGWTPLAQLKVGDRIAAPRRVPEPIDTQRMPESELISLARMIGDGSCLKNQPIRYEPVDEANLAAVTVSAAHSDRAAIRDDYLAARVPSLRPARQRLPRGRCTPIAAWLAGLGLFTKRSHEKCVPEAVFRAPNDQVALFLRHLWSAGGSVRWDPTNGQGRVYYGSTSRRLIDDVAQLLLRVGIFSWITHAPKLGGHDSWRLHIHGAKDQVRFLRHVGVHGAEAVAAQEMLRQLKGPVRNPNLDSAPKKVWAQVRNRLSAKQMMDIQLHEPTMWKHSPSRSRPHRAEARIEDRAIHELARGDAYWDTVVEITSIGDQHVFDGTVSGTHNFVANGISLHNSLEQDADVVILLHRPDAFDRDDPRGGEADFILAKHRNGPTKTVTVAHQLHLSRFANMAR

[2] = test system: Streptococcus sp. 'group A'; experiment: Streptococcus pyogenes SK(-)GAS viability under kanamycin – luminescence, BacTiterGlo, confirmation, counter-screen for streptokinase expression inhibitor project, dose response (AID 1900); type: functional, organism-based
Protein RecA = biological target: T2, Protein RecA (Mycobacterium tuberculosis, UniProt P9WHJ3); experiment: Fluorescence Cell-Free Homogeneous Dose Retest to Identify Inhibitors of RecA-Intein Splicing Activity. [Related pubchem assays (depositor defined):AID2097, AID2223, AID489010, AID492950]; type: functional
T2 sequence (P9WHJ3 whole entry): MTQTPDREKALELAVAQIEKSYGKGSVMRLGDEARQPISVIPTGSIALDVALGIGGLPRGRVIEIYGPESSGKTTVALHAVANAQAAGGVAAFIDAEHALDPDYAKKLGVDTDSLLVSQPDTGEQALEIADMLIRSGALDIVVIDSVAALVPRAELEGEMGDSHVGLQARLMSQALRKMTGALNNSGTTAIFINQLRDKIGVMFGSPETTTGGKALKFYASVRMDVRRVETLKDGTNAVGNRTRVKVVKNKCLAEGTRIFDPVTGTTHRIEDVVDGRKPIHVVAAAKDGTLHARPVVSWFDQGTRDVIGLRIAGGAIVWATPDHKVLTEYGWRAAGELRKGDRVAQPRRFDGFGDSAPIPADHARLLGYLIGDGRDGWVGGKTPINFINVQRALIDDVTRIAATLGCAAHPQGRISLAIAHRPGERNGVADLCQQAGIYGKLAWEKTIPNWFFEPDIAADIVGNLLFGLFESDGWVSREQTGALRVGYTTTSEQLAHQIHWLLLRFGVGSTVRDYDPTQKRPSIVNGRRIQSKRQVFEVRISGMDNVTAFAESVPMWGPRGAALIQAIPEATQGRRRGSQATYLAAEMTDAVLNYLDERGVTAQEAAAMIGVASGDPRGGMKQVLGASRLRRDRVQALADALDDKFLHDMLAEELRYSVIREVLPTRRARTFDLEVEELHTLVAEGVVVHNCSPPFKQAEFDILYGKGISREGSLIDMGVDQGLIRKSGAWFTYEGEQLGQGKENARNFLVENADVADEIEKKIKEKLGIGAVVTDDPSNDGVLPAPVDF

[3] = biological target: T3, Apoptotic protease-activating factor 1 (Homo sapiens, UniProt O14727); type: functional
T3 sequence (O14727 whole entry): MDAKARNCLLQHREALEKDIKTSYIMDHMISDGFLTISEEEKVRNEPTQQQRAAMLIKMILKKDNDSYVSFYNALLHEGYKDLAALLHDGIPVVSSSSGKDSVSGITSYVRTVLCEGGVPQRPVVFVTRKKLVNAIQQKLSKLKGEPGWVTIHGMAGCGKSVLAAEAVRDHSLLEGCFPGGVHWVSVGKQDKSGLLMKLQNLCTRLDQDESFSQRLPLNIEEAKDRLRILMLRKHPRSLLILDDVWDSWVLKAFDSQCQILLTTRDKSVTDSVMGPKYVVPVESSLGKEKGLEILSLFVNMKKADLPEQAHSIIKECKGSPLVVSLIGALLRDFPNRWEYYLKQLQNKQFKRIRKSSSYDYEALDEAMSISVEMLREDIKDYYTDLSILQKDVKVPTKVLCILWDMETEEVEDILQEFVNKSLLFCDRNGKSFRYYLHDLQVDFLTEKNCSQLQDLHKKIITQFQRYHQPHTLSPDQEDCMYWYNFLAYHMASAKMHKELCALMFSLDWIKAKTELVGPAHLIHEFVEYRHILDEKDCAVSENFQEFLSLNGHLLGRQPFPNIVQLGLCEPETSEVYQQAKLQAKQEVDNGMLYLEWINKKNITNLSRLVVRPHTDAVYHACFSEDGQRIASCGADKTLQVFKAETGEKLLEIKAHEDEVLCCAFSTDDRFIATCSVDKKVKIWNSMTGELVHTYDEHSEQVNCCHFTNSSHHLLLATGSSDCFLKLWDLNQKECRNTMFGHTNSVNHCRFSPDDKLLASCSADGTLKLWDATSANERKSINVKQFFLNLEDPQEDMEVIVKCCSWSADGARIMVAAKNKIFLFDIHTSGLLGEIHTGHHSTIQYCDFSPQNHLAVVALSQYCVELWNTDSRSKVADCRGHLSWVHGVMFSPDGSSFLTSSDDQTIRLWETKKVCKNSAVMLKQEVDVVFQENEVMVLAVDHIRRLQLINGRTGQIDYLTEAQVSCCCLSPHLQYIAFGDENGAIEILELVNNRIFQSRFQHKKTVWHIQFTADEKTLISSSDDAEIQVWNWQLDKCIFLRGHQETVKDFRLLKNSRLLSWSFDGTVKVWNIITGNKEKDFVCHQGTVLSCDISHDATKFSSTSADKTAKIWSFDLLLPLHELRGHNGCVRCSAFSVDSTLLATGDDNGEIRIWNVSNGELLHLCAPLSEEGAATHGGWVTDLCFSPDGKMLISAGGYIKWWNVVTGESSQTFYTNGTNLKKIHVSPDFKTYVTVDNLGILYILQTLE

O=C(Nc1ccccc1Cl)/C(Cl)=C(\Cl)[S+]([O-])c1ccccc1 (stereo not given)
active: AC50 [1] 2.7 µM | EC50 ([2]; Streptococcus sp. 'group A') 1530 nM | EC50 (Protein RecA) 0.935 µM

O=C(NC1(O)C(=O)c2ccccc2C1=O)c1ccccc1
active: AC50 [1] 7.72 µM | IC50 [3] 3.22 µM | EC50 (Protein RecA) 16.4 µM

Cc1ccc(C)c(S(=O)(=O)/N=C2\C=C(NS(=O)(=O)c3ccccc3)C(=O)c3ccccc32)c1
active: AC50 [1] 2.17 µM | IC50 [3] 12 µM | EC50 (Protein RecA) 2.25 µM

CCCCCCCCCCCCCCCCn1cc[n+](C)c1
active: AC50 [1] 3.37 µM and 3.76 µM | EC50 [2] 1970 nM | EC50 ([2]; Streptococcus sp. 'group A') 1720 nM | IC50 [3] 22.2 µM and 21.1 µM | EC50 (Protein RecA) 9.84 µM and 8.55 µM

Cc1cc(C)nc(/N=c2/ssnc2Cl)c1
active: IC50 [3] 2.9 µM
